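Results reflect a 48-hour exposure of cells in 96-well plates to compound at five concentrations. TGI marks complete inhibition of growth.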
Experiments:
Assay in all cases: NCI-60 cell line screen, 48 h
SW-620 colon = system: SW-620 colon
SNB-78 CNS = system: SNB-78 CNS
OVCAR-8 ovarian = system: OVCAR-8 ovarian
NCI-H460 lung = system: NCI-H460 lung
RPMI-8226 leukemia = system: RPMI-8226 leukemia
ACHN renal = system: ACHN renal
HCT-15 colon = system: HCT-15 colon
SNB-19 CNS = system: SNB-19 CNS
U251 CNS = system: U251 CNS
MOLT-4 leukemia = system: MOLT-4 leukemia
SN12C renal = system: SN12C renal
NCI-H23 lung = system: NCI-H23 lung
K-562 leukemia = system: K-562 leukemia
M14 melanoma = system: M14 melanoma
TK-10 renal = system: TK-10 renal
HL-60(TB) leukemia = system: HL-60(TB) leukemia
SK-OV-3 ovarian = system: SK-OV-3 ovarian
SF-295 CNS = system: SF-295 CNS
HOP-62 NSCLC = system: HOP-62 NSCLC
SR leukemia = system: SR leukemia
XF 498 CNS = system: XF 498 CNS
HT29 colon = system: HT29 colon
UO-31 renal = system: UO-31 renal
DMS 273 small cell lung = system: DMS 273 small cell lung
NCI-H522 lung = system: NCI-H522 lung
KM20L2 colon = system: KM20L2 colon
DLD-1 colon = system: DLD-1 colon
SNB-75 CNS = system: SNB-75 CNS
HOP-92 NSCLC = system: HOP-92 NSCLC
SK-MEL-2 melanoma = system: SK-MEL-2 melanoma
SK-MEL-28 melanoma = system: SK-MEL-28 melanoma
CAKI-1 renal = system: CAKI-1 renal
MALME-3M melanoma = system: MALME-3M melanoma
LOX IMVI melanoma = system: LOX IMVI melanoma
A549 NSCLC = system: A549 NSCLC
SF-268 CNS = system: SF-268 CNS
OVCAR-5 ovarian = system: OVCAR-5 ovarian
UACC-62 melanoma = system: UACC-62 melanoma
OVCAR-3 ovarian = system: OVCAR-3 ovarian
HCC-2998 colon = system: HCC-2998 colon
786-0 renal = system: 786-0 renal
OVCAR-4 ovarian = system: OVCAR-4 ovarian
COLO 205 colon = system: COLO 205 colon
IGROV1 ovarian = system: IGROV1 ovarian
KM12 colon = system: KM12 colon
UACC-257 melanoma = system: UACC-257 melanoma
NCI-H226 lung = system: NCI-H226 lung
HCT-116 colon = system: HCT-116 colon
SF-539 CNS = system: SF-539 CNS
LXFL 529 NSCLC = system: LXFL 529 NSCLC
CCRF-CEM leukemia = system: CCRF-CEM leukemia
HOP-18 NSCLC = system: HOP-18 NSCLC
SK-MEL-5 melanoma = system: SK-MEL-5 melanoma
M19-MEL melanoma = system: M19-MEL melanoma
RXF 393 renal = system: RXF 393 renal
A498 renal = system: A498 renal
EKVX NSCLC = system: EKVX NSCLC
DMS 114 small cell lung = system: DMS 114 small cell lung

CC(=O)NC(ON1C(=O)COc2ccccc21)C(Cl)(Cl)Cl (centres undefined)
TGI (SW-620 colon): > 100 µM | TGI (SNB-78 CNS): > 100 µM | TGI (OVCAR-8 ovarian): > 100 µM | TGI (NCI-H460 lung): > 100 µM | TGI (RPMI-8226 leukemia): > 100 µM | TGI (ACHN renal): > 100 µM | TGI (HCT-15 colon): > 100 µM | TGI (SNB-19 CNS): > 100 µM | TGI (U251 CNS): > 100 µM | TGI (MOLT-4 leukemia): > 100 µM | TGI (SN12C renal): > 100 µM | TGI (NCI-H23 lung): > 100 µM | TGI (K-562 leukemia): > 100 µM | TGI (M14 melanoma): > 100 µM | TGI (TK-10 renal): > 100 µM | TGI (HL-60(TB) leukemia): > 100 µM | TGI (SK-OV-3 ovarian): > 100 µM | TGI (SF-295 CNS): > 100 µM | TGI (HOP-62 NSCLC): > 100 µM | TGI (SR leukemia): > 100 µM | TGI (XF 498 CNS): > 100 µM | TGI (HT29 colon): > 100 µM | TGI (UO-31 renal): > 100 µM | TGI (DMS 273 small cell lung): > 100 µM | TGI (NCI-H522 lung): > 100 µM | TGI (KM20L2 colon): > 100 µM | TGI (DLD-1 colon): > 100 µM | TGI (SNB-75 CNS): > 100 µM | TGI (HOP-92 NSCLC): > 100 µM | TGI (SK-MEL-2 melanoma): > 100 µM | TGI (SK-MEL-28 melanoma): > 100 µM | TGI (CAKI-1 renal): > 100 µM | TGI (MALME-3M melanoma): > 100 µM | TGI (LOX IMVI melanoma): > 100 µM | TGI (A549 NSCLC): > 100 µM | TGI (SF-268 CNS): > 100 µM | TGI (OVCAR-5 ovarian): > 100 µM | TGI (UACC-62 melanoma): > 100 µM | TGI (OVCAR-3 ovarian): > 100 µM | TGI (HCC-2998 colon): > 100 µM | TGI (786-0 renal): > 100 µM | TGI (OVCAR-4 ovarian): > 100 µM | TGI (COLO 205 colon): > 100 µM | TGI (IGROV1 ovarian): > 100 µM | TGI (KM12 colon): > 100 µM | TGI (UACC-257 melanoma): > 100 µM | TGI (NCI-H226 lung): 88.1 µM | TGI (HCT-116 colon): > 100 µM | TGI (SF-539 CNS): > 100 µM | TGI (LXFL 529 NSCLC): > 100 µM

CCC1(O)C(=O)OCc2c1cc1n(c2=O)Cc2c-1nc1ccccc1c2OC (centres undefined)
TGI (SW-620 colon): 29 µM | TGI (SNB-78 CNS): > 100 µM | TGI (OVCAR-8 ovarian): > 100 µM | TGI (RPMI-8226 leukemia): 0.511 µM | TGI (ACHN renal): 0.06 µM | TGI (HCT-15 colon): 23.7 µM | TGI (SNB-19 CNS): > 29.2 µM | TGI (U251 CNS): 0.0801 µM | TGI (CCRF-CEM leukemia): < 0.01 µM | TGI (HOP-18 NSCLC): > 77.9 µM | TGI (MOLT-4 leukemia): < 0.0195 µM | TGI (NCI-H23 lung): 0.0749 µM | TGI (K-562 leukemia): > 100 µM | TGI (M14 melanoma): 0.445 µM | TGI (TK-10 renal): > 100 µM | TGI (HL-60(TB) leukemia): < 0.0341 µM | TGI (SK-MEL-5 melanoma): 0.205 µM | TGI (SK-OV-3 ovarian): 7.47 µM | TGI (SF-295 CNS): 11.3 µM | TGI (HOP-62 NSCLC): < 0.01 µM | TGI (SR leukemia): < 0.01 µM | TGI (M19-MEL melanoma): 1.89 µM | TGI (HT29 colon): > 87.1 µM | TGI (UO-31 renal): 0.249 µM | TGI (DMS 273 small cell lung): 0.108 µM | TGI (NCI-H522 lung): 0.984 µM | TGI (DLD-1 colon): > 100 µM | TGI (SNB-75 CNS): 0.129 µM | TGI (HOP-92 NSCLC): 3.57 µM | TGI (SK-MEL-2 melanoma): 14.7 µM | TGI (SK-MEL-28 melanoma): > 53.8 µM | TGI (CAKI-1 renal): 1.8 µM | TGI (MALME-3M melanoma): 25.3 µM | TGI (RXF 393 renal): 0.11 µM | TGI (LOX IMVI melanoma): 0.441 µM | TGI (A549 NSCLC): 1.85 µM | TGI (SF-268 CNS): 2.31 µM | TGI (OVCAR-5 ovarian): 27.4 µM | TGI (UACC-62 melanoma): 0.413 µM | TGI (OVCAR-3 ovarian): 5.85 µM | TGI (HCC-2998 colon): 5.77 µM | TGI (786-0 renal): 0.0249 µM | TGI (OVCAR-4 ovarian): 2.55 µM | TGI (COLO 205 colon): 13.9 µM | TGI (A498 renal): 0.319 µM | TGI (EKVX NSCLC): > 54.5 µM | TGI (IGROV1 ovarian): 5.65 µM | TGI (KM12 colon): 10.8 µM | TGI (UACC-257 melanoma): 2.68 µM | TGI (NCI-H226 lung): 0.12 µM | TGI (HCT-116 colon): 1.21 µM | TGI (SF-539 CNS): 0.0414 µM | TGI (LXFL 529 NSCLC): > 69.6 µM | TGI (DMS 114 small cell lung): 1.26 µM

From PubChem BioAssay (NCI)
